Among the data in BindingDB's records for PubMed 8394902 (Georgetown University, 1993) are Ki values, retold here.

In the assay the target is Gamma-aminobutyric acid receptor subunit alpha-1 (Rattus norvegicus, UniProt P62813).

Where “and” joins values, the source holds several entries; their conditions need not be identical. Equal entries are not always repeated.

Sequence of Gamma-aminobutyric acid receptor subunit alpha-1 (P62813 whole entry): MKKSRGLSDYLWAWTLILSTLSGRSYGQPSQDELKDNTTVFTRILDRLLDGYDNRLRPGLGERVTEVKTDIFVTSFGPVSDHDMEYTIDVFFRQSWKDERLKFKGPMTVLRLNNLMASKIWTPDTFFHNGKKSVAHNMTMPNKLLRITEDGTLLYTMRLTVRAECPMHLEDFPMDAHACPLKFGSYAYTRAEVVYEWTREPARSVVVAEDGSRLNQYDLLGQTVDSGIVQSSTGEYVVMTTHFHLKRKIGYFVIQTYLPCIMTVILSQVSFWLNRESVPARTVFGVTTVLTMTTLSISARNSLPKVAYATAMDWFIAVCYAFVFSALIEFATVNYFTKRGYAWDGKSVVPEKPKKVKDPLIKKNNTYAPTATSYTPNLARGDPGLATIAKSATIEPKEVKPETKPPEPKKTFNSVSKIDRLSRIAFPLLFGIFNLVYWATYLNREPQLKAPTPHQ

On to `Cc1nnc2n1-c1ccc(Cl)cc1C(c1ccccc1)=NC2`, for which the Ki – broadly, a measure of affinity in units of concentration, obtained from inhibition or displacement – is 21 nM and 65 nM.
